Eleven compounds from patent US20020055470A1, “Circumvention of human tumor drug resistance” (CITY OF HOPE, priority 1987, published 2002) can be followed below.

Values joined by “and” are separate entries in the source; they are usually repeats but may differ in a detail not shown here. Equal values may be shown once. Read-outs that look alike come from different tables or passages of the source.

Format in all cases: cell-based, human
Test [1] concerns A2780S. The experiment in a line: Inhibition of cell growth (cells counted on Coulter Counter after six days). As to the method: The experiment was conducted in triplicate in the manner described with respect to Table I.
A2780 cells were well-plated (35 mm disnes) and 24 hours later the cells were treated with cisplatin for one hour, washed out and then treated with 6 concentrations of from 1 μM to 100 μM increased in equal increments of a nucleoside analog in saline. Cells were then washed and incubated for six days. The cells were counted on a Coulter Counter and the experiment was done in triplicate.
(§1) Table VI includes EC50 data further exemplifying the invention. The data reported by Table VI was obtained by substantially the same procedure as that described with respect to Table III. In Table VI, “(C)” indicates continuous exposure, “(1 h)” and “(2 h)” indicate exposure for 1 hour and 2 hours; “HU” indicates hydroxyurea.

The test system of test [2] is A2780DDP. Described as above. The settings on record: for Ratio (degree of resistance or cross-resistance): A2780DDP vs A2780S EC50. As to the method: The experiment was conducted in triplicate in the manner described with respect to Table I. […]
as §1

In test [3] the test system is HCT8DDP. The description is as above. As to the method: as §1
The test system of test [4] is HCT8S. The description is as above. As to the method:
as §1

For test [5], the system named is HCF7S. The experiment in a line: Inhibition of cell growth, Table VI.
In test [6] the test system is HCF-7 DDP. The experiment in a line: Inhibition of cell growth, Table VI. Particulars: for EC50: HCF-7 DDP. As to the method: as §1
In test [7] the test system is K562-araC. The experiment in a line: Inhibition of cell growth, Table VI. Particulars: for EC50: K562-araC. As to the method:
as §1

The test system of test [8] is K562S. The experiment in a line: Inhibition of cell growth, Table VI. As to the method:
as §1

Test [9] deals with K562-DDP. The test is described as follows: Inhibition of cell growth, Table VI. The settings on record: for EC50: K562-DDP.
The test system of test [10] is K562-VP16. The test is described as follows: Inhibition of cell growth, Table VI.
The subject of test [11] is A2780DDP. The test is described as follows: Dual labeled (14C/3H) DNA synthesis and degradation in response to cisplatin; incorporation of labelled nucleoside analogs. Particulars: A2780DDP. The text has this: A dual labeled (^14C/^3H) experiment was designed to measure simultaneously DNA synthesis and degradation in response to cisplatin.
The mark [12] stands for this setting: Homo sapiens, A2780S, (C) continuous exposure, read-out: EC50.
Setting [13] is: Homo sapiens, A2780 DDP, (C) continuous exposure, read-out: EC50.
[14] abbreviates: Homo sapiens, HCT8-DDP, (C) continuous exposure, read-out: EC50.
Where [15] appears, read: Homo sapiens, (C) continuous exposure, read-out: EC50.
The mark [16] stands for this setting: Homo sapiens, (C) continuous exposure.
The mark [17] stands for this setting: A2780S, (C) continuous exposure, read-out: EC50.
The mark [18] stands for this setting: A2780 DDP, (C) continuous exposure, read-out: EC50.
Where [19] appears, read: HCT8-DDP, (C) continuous exposure, read-out: EC50.
Where [20] appears, read: (C) continuous exposure, read-out: EC50.
Setting [21] is: continuous exposure, proliferation during 6 days, mean + SD, read-out: EC50 A2780S.
[22] abbreviates: continuous exposure, proliferation during 6 days, mean + SD, read-out: EC50 A2780DDP.
The mark [23] stands for this setting: 0 min after cisplatin (20 μM) treatment.
[24] abbreviates: 45 min after cisplatin (20 μM) treatment.
Where [25] appears, read: 90 min after cisplatin (20 μM) treatment.
Where [26] appears, read: 180 min after cisplatin (20 μM) treatment.

As to `Nc1nc2c(ncn2COCCO)c(=O)[nH]1` [Acyclovir], the EC50 in test [1] (setting [12]), in test [2] (setting [13]), in [3] (setting [14]), in [4] (setting [15]), in [5] (setting [16]) and in [6] (setting [16]) was greater than 300 µM each time. Further, the EC50 in [7] (setting [16]), in test [8] (setting [16]), in [9] (setting [16]) and in [10] (setting [16]) was greater than 300 µM in each case.
Take `Nc1ncnc2c1ncn2[C@@H]1O[C@H](CO)C[C@H]1O` [Cordicpin]: the EC50 in test [1] (setting [17]) was 70 µM; in [2] (setting [18]), 310 µM; in [3] (setting [19]) it was 95 µM; in [4] (setting [20]), 110 µM; in test [5] ((C) continuous exposure) it was 130 µM; in [7] ((C) continuous exposure) it was 67 µM. Besides, the EC50 came out at 130 µM in test [8] ((C) continuous exposure), 160 µM in [9] ((C) continuous exposure) and 150 µM in [10] ((C) continuous exposure). In test [7] (K562 human leukemia cells), the “fold more sensitive, araC resistant vs sensitive K562 cells” value came out at 2 fold.
With `Nc1nc(O)c2ncn(COC(CO)CO)c2n1` [Ganciclovir, ganciclovir], the EC50 amounted to 110 µM in test [1] (setting [12]); 110 µM in test [1] (Homo sapiens, A2780S, treated 24 h after plating, counted six days later, mean + SD, read-out: Ganciclovir EC50); 30 µM in test [2] (setting [13]); 30 µM in [2] (Homo sapiens, A2780DDP, treated 24 h after plating, counted six days later, mean + SD, read-out: Ganciclovir EC50); 40 µM in test [3] (setting [14]); 40 µM in test [3] (Homo sapiens, HCT8DDP, treated 24 h after plating, counted six days later, mean + SD, read-out: Ganciclovir EC50). Besides, the EC50 in [4] (setting [15]) was 60 µM; in [4] (Homo sapiens, treated 24 h after plating, counted six days later, mean + SD, read-out: Ganciclovir EC50), 60 µM; in test [5] (setting [16]) it was 200 µM; in test [6] (setting [16]), 50 µM; in test [7] (setting [16]) it was 20 µM; in test [8] (setting [16]), 10 µM. Also, the EC50 stood at 295 µM in test [9] (setting [16]) and 250 µM in [10] (setting [16]). Also, the “fold more sensitive (lower concentration), cisplatin resistant vs sensitive A2780 cells” value in test [2] (A2780DDP vs A2780S) was 3-4 fold and 3.3 fold. The “fold more sensitive, cispt resistant vs sensitive HCT8 cells” value in test [3] (HCT8 human colon cancer cells) worked out at 1.5 fold. The “fold more sensitive, cispt resistant vs sensitive MCF7 cells” value in test [6] (MCF7 human breast cancer cells) turned out to be 4 fold.
Take `NC(=O)NO` [NU, hydroxyurea]: the EC50 was determined as 75 µM in test [1] (setting [17]); 60 µM in test [2] (setting [18]); 100 µM in test [3] (setting [19]); 100 µM in test [4] (setting [20]); 100 µM in test [5] ((C) continuous exposure); 200 µM in test [6] ((C) continuous exposure). The EC50 was 40 µM in [7] ((C) continuous exposure), 40 µM in test [8] ((C) continuous exposure), 140 µM in test [9] ((C) continuous exposure) and 40 µM in [10] ((C) continuous exposure).
On to `NC(=O)c1ncn([C@@H]2O[C@H](CO)[C@@H](O)[C@H]2O)n1` [Ribovirin], for which the EC50 was found to be 27 µM in test [1] (setting [17]); 45 µM in test [2] (setting [18]); 50 µM in [3] (setting [19]); 70 µM in [4] (setting [20]); 100 µM in [5] ((C) continuous exposure); 42 µM in test [7] ((C) continuous exposure). The values for the EC50 in test [8] ((C) continuous exposure), in [9] ((C) continuous exposure) and in test [10] ((C) continuous exposure) were 62 µM, 75 µM and 55 µM, respectively.
With `Nc1ncnc2c1ncn2[C@@H]1O[C@H](CO)[C@@H](O)[C@@H]1O` [araA], the EC50 in test [1] (setting [21]) turned out to be 16.2 µM; in [2] (setting [22]), 64.7 µM. For the same compound, the “Ratio (degree of resistance or cross-resistance)” value in test [2] (continuous exposure) was “+4.0”. Also, the “Incorporation of labelled nucleoside analog into macromolecules” value in test [11] (setting [23]) stood at 19.01; in [11] (setting [24]), 24.21; in test [11] (setting [25]), 27.91; in [11] (setting [26]) it was 32.70.
As to `Nc1ccn([C@@H]2O[C@H](CO)[C@@H](O)[C@@H]2O)c(=O)n1` [araC], the EC50 in test [1] (A2780S, (2h) exposure, read-out: EC50) was found to be 0.1 µM; in test [1] (setting [21]) it was 0.1 µM; in test [2] (A2780 DDP, (2h) exposure, read-out: EC50) it was 4.5 µM; in [2] (setting [22]) it was 4.5 µM; in test [3] (HCT8-DDP, (2h) exposure, read-out: EC50), 79 µM; in test [4] ((2h) exposure, read-out: EC50), 29 µM. For the same compound, the EC50 was found to be 2.5 µM in test [5] ((2h) exposure); 5 µM in test [6] ((2h) exposure); 8 µM in test [7] ((2h) exposure); 0.3 µM in test [8] ((2h) exposure); 0.3 µM in [9] ((2h) exposure); 8 µM in test [10] ((2h) exposure). Besides, the “Ratio (degree of resistance or cross-resistance)” value in [2] (continuous exposure) is listed as “+45.0”.
Consider `Nc1ncnc2c1ncn2[C@H]1CC[C@@H](CO)O1` [ddA, 2′3′-dideoxyadenosine], for which the EC50 in test [1] (setting [17]) is 10 µM; in test [2] (setting [18]), 25 µM; in test [3] (setting [19]) it was 36 µM; in test [4] (setting [20]), 33 µM; in test [5] ((C) continuous exposure), 30 µM; in [6] ((C) continuous exposure), 30 µM. Moreover, the EC50 in test [7] ((C) continuous exposure) is 36 µM; in test [8] ((C) continuous exposure), 37.5 µM; in test [9] ((C) continuous exposure), 28 µM; in [10] ((C) continuous exposure) it was 35 µM.
`Nc1ccn([C@H]2CC[C@@H](CO)O2)c(=O)n1` [ddC, dideoxycytidine]: the EC50 in [1] (Homo sapiens, A2780S, 144 h, continuous exposure, proliferation during 6 days, mean + SD, read-out: EC50 A2780S) stood at 1.5 µM; in [1] (setting [12]) it was 1.5 µM; in test [2] (Homo sapiens, 144 h, continuous exposure, proliferation during 6 days, mean + SD, read-out: EC50 A2780DDP), 4 µM; in test [2] (setting [13]) it was 4 µM; in test [3] (setting [14]), 23 µM; in test [4] (setting [15]), 2 µM. Also, the EC50 was 2.5 µM in test [5] (setting [16]); greater than 100 µM in [6] (setting [16]); greater than 300 µM in test [7] (setting [16]); 25 µM in test [8] (setting [16]); 5 µM in test [9] (setting [16]); 100 µM in test [10] (setting [16]). Besides, in test [2] (continuous exposure), the “Ratio (degree of resistance or cross-resistance)” value was “+2.6”. Moreover, in test [9] (K562 human leukemia cells), the “factor more sensitive, cispt resistant vs sensitive K562 cells” value was found to be 5. Also, the “Incorporation of labelled nucleoside analog into macromolecules” value in [11] (setting [23]) was 15.09; in [11] (setting [24]) it was 36.94; in test [11] (setting [25]), 42.61; in [11] (setting [26]), 45.93.
Consider `Nc1nc2c(ncn2[C@H]2CC[C@@H](CO)O2)c(=O)[nH]1` [ddG, 2′,3′-dideoxyquanosene], for which the EC50 in test [1] (setting [17]) was found to be 60 µM; in [2] (setting [18]), 110 µM; in test [3] (setting [19]) it was 45 µM; in test [4] (setting [20]), 35 µM; in test [5] ((C) continuous exposure), 210 µM; in [6] ((C) continuous exposure), 180 µM. Moreover, the half-maximal effective concentration (EC50) in test [7] ((C) continuous exposure) was 150 µM; in test [8] ((C) continuous exposure), 160 µM; in test [9] ((C) continuous exposure) it was 190 µM; in test [10] ((C) continuous exposure), 170 µM.
With `Cc1cn([C@H]2CC[C@@H](CO)O2)c(=O)[nH]c1=O` [ddT, 2′,3′-dideoxythymidine], the EC50 in [1] (setting [17]) was 110 µM; in test [2] (setting [18]) it was greater than 750 µM; in [3] (setting [19]) it was greater than 500 µM; in test [4] (setting [20]), greater than 150 µM; in test [5] ((C) continuous exposure), greater than 500 µM; in test [6] ((C) continuous exposure), greater than 500 µM. Moreover, the EC50 in test [7] ((C) continuous exposure) is greater than 400 µM; in test [8] ((C) continuous exposure) it was greater than 400 µM; in test [9] ((C) continuous exposure), greater than 400 µM; in test [10] ((C) continuous exposure) it was 200 µM.

For orientation: EC50 means the concentration that produces a half-maximal response.
